From patent US20080027044A1, “Prodrug antibiotic screens” (priority 2006, published 2008)
Values after ≈ are worked out from the molar mass of the structure shown.

Tests used:
[1] = system: E. coli K12 overexpressing activating enzyme; assay: MIC, broth microdilution, strains overexpressing activating enzyme; assay type: cell-based; conditions: for MIC: 1 mM IPTG; for susceptibility of strains overexpressing the corresponding activating enzymes: in words
Source text: Next, the hits that verify and have reduced activity compared to wild type or no activity against strains deleted in a known or putative enzyme are validated. The rationale is to test the hit against a strain overexpressing the putative activating enzyme. Strains overexpressing activating enzymes have considerably higher susceptibility to prodrugs. It is important to note that conventional antibiotics that inhibit specific targets have increased activity against strains with diminished expression of the target, and decreased activity if the target is overproduced (Schmid, M. B. (2001) New targets and strategies for identification of novel classes of antibiotics. In Antibiotic Development and Resistance. Hughes, D. and Andersson, D. I. (eds). New York: Taylor and Francis, pp. 197-208; Sun, D.e.a. (2001) In 41st Interscience Conference on Antimicrobial Agents and Chemotherapy Chicago: ASM, pp. 77). A prodrug hit has higher activity against a strain overexpressing an activating enzyme, and lower activity against a strain lacking/diminished in an activating enzyme. This behavior of a prodrug hit is the exact opposite from what one expects from a specific antibiotic, and will provide for an excellent preliminary validation of prodrugs. This validation is facilitated by the availability of the ASKA library of E. coli strains overexpressing all known ORFs. The University of Nagoya freely distributes this resource (Saka et al. (2005) DNA Res. 12:63-68). The library contains 4,382 individual E. coli K12 W3110 clones, each carrying a single ORF cloned in an expression vector pCA24N under a pT5/lac promoter. The N-termini carry a his-tag linked to the ORF by a 7 amino acid spacer. The vector carries a CAM resistance marker and a lacl^q gene for a tight control of IPTG-inducible expression.
(§1) The ASKA strains of interest are validated for functional expression of the enzyme. If the protein is not expressed from a given expression vector the ORF will be recloned. A strain overexpressing the activating enzyme from the ASKA library is then tested with the hit compound. If the hit has greater activity against this overexpressing strain as compared to the wild type, this indicates a prodrug. The test is performed in a standard broth microdilution assay for MIC determination. Hits with the lowest wild type MIC are then focused on.
(§2) Cells were tested in a standard broth microdilution assay, inoculating 10^5 cells per well of a microtiter plate in LB broth. Overexpression and deletion strains were compared to the appropriate isogenic wild type. IPTG was added at 1 mM to growth medium. Experiments involving nfnB and nfsA strains were performed under anaerobic conditions.

[2] = system: E. coli K12 Δactivating enzyme; assay: MIC, broth microdilution, strains deleted in activating enzyme; assay type: cell-based; conditions: anaerobic conditions
Procedure: as §2

[3] = system: E. coli K12 ΔtolC overexpressing activating enzyme; assay: MIC, broth microdilution, tolC deletion strains (MDR efflux test); assay type: cell-based
Source text: Prodrugs are activated by activating enzymes into reactive molecules that bind to their targets, creating an irreversible sink. This may lead to insensitivity of the overall process to MDR efflux. In order to test this possibility, an E. coli K12 with a deletion in tolC coding for the outer membrane porin that is a component of the transenvelope MDRs was utilized (Li, X. Z et al. (2004) Drugs 64:159-204). This strain is highly sensitive to antibiotics (Tegos et al. (2002) Antimicrob. Agents Chemother. 46:3133-3141). […] The substrate specificity of AcrAB is remarkably broad, and includes essentially all small molecular weight amphipathic compounds. The AcrAB substrates include anions (SDS, fatty acids, bile acids), neutral compounds (macrolides, chloramphenicol, tetracyclines) and cations or compounds that can form cations (acridine, quaternary compound antiseptics, fluoroquinolones). AcrAB can extrude the best natural broad spectrum antibiotics that evolved for good penetration —chloramphenicol and tetracycline; and extrude the best synthetic broad-spectrums, the fluoroquinolones. Indeed, amphipathic antimicrobials that are not an AcrAB substrate are not known.
as §2

E. coli K12 wt = assay: MIC, standard broth microdilution assay, wild type; assay type: cell-based; conditions: in words; all strains tested
Procedure: as §1, §2

P. aeruginosa = assay: Killing of logarithmic, stationary and biofilm cultures by bactericidal antimicrobials (colony count); assay type: cell-based; conditions: in words
Procedure: Persister cells in planktonic and biofilm populations are characterized for their antibiotic sensitivity in this example. Several bactericidal antimicrobials were chosen to test the resistance of P. aeruginosa to killing—ofloxacin, a fluoroquinolone; tobramycin, an aminoglycoside; carbenicillin, a β-lactam; and peracetic acid, a disinfectant oxidant (Spoering et al. (2001) J. Bacteriol. 183:6746-6751). Biofilms were grown essentially by the method of Ceri (Ceri et al. (1999) J. Clin. Microbiol. 37:1771-1776) and as described in Brooun et al. (2000) Antimicrob. Agents Chemother. 44:640-646. The device used for biofilm formation is a platform carrying 96 polystyrene pegs that fit in a microtiter plate. Preformed biofilms were incubated in the presence of an antimicrobial agent, and survival was measured after disrupting the biofilms by colony count.
Carbenicillin is a bactericidal antibiotic that, similarly to most β-lactams, only kills rapidly growing cells (Tuomanen et al. (1986) Scand. J. Gastroenterol. Suppl:10-14). Logarithmic state, stationary and biofilm cultures were challenged with carbenicillin.
Unlike carbenicillin, ofloxacin can kill non-growing cells (Brooun et al. (2000) Antimicrob. Agents Chemother. 44:640-646). […] After a 6 hours incubation time with the antibiotic, viability was determined by colony count. […]

[4] = Schulz et al. (1997); cited from earlier work
[5] = E. coli K12 nfnB+ (overexpressing), anaerobic conditions
[6] = E. coli K12 nfsA+ (overexpressing), anaerobic conditions
[7] = E. coli K12 ΔtolC nfnB+ (overexpressing), anaerobic conditions
[8] = E. coli K12 ΔtolC nfsA+ (overexpressing), anaerobic conditions

## NC(=O)c1cc([N+](=O)[O-])cc([N+](=O)[O-])c1 [3,5-Dinitrobenzamide]
[1]; [5]
  MIC: 15.6 µg/mL (≈ 73.9 µM)
[1]; [6]
  MIC: 7.8 µg/mL (≈ 36.9 µM)
[1]
  susceptibility of strains overexpressing the corresponding activating enzymes: significantly increased susceptibilities
[2]; E. coli K12 nfnB− (deleted)
  MIC: >500 µg/mL
[2]; E. coli K12 nfsA− (deleted)
  MIC: >500 µg/mL
[3]; [7]
  MIC: 15.6 µg/mL (≈ 73.9 µM)
[3]; [8]
  MIC: 7.8 µg/mL (≈ 36.9 µM)

## Nc1nc(O)ncc1F [5-fluorocytosine, 5-Fluorocytosine]
E. coli K12 wt
  activity against any strains tested: little activity

## NC(=O)c1cc(N2CC2)c([N+](=O)[O-])cc1[N+](=O)[O-] [Dinitroaziridinylbenzamide (CB1954), Dinitroaziridinylbenzamide]
[1]; [5]
  MIC: 3.3 µg/mL (≈ 13.1 µM)
[1]; [6]
  MIC: 6.3 µg/mL (≈ 25 µM)
[1]
  susceptibility of strains overexpressing the corresponding activating enzymes: significantly increased susceptibilities
[3]; [7]
  MIC: 3.3 µg/mL (≈ 13.1 µM)
[3]; [8]
  MIC: 6.3 µg/mL (≈ 25 µM)

## CC[C@H]1OC(=O)[C@H](C)[C@@H](O[C@H]2C[C@@](C)(OC)[C@@H](O)[C@H](C)O2)[C@H](C)[C@@H](O[C@@H]2O[C@H](C)C[C@H](N(C)C)[C@H]2O)[C@](C)(O)C[C@@H](C)C(=O)[C@H](C)[C@@H](O)[C@]1(C)O [Erythromycin]
[1]; E. coli K12 codA+ (overexpressing)
  MIC: 200 µg/mL (≈ 273 µM)
[1]; E. coli K12 deoD+ (overexpressing)
  MIC: 200 µg/mL (≈ 273 µM)
[1]; [6]
  MIC: 200 µg/mL (≈ 273 µM)
[3]; E. coli K12 ΔtolC codA+ (overexpressing)
  MIC: 1.56 µg/mL (≈ 2.13 µM)
[3]; E. coli K12 ΔtolC deoD+ (overexpressing)
  MIC: 1.56 µg/mL (≈ 2.13 µM)
[3]; [7]
  MIC: 1.56 µg/mL (≈ 2.13 µM)
[3]; [8]
  MIC: 1.56 µg/mL (≈ 2.13 µM)

## CC(=O)OO [Peracetic acid, peracetic acid]
P. aeruginosa; all three cultures
  killing of logarithmic, stationary and biofilm cultures: all cultures were sterilized

## NC[C@H]1O[C@H](O[C@H]2[C@H](O)[C@@H](O[C@H]3O[C@H](CO)[C@@H](O)[C@H](N)[C@H]3O)[C@H](N)C[C@@H]2N)[C@H](N)C[C@@H]1O [Tobramycin, tobramycin]
P. aeruginosa; logarithmic cells
  killing of logarithmic cells: no logarithmic persisters were detected
[4]
  clinically achievable concentration: 10 µg/mL

## CC1COc2c(N3CCN(C)CC3)c(F)cc3c(=O)c(C(=O)O)cn1c23 (stereo not drawn) [ofloxacin]
[4]
  clinically achievable concentration: 5 µg/mL
